Experimental data reported in the supplement of paper PMC10307832.

What was measured:
Experiment in all cases: relative viability (nuclei count vs DMSO), 5 days (fraction); higher = more cells survive
ABC-1 = system: ABC-1
Method in brief: (§1)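 Lung cancer cell lines in 1536-well plates got either a single drug or a fixed anchor-drug dose together with five library-drug doses (not always all listed) in √10 steps, by pin tool, on the day after seeding. Nuclei were counted after 5 days, and relative viability is the treated-to-vehicle ratio of nuclei counts. Values are medians of duplicate plates.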

SK-MES-1 = system: SK-MES-1
Method in brief: as §1

NCI-H1355 = system: NCI-H1355
Method in brief: as §1

NCI-H322M = system: NCI-H322M
Method in brief: as §1

NCI-H1915 = system: NCI-H1915
Method in brief: as §1

NCI-H2085 = system: NCI-H2085
Method in brief: as §1

NCI-H2087 = system: NCI-H2087
Method in brief: as §1

CAL-12T = system: CAL-12T
Method in brief: as §1

A-427 = system: A-427
Method in brief: as §1

PC-14 = system: PC-14
Method in brief: as §1

LCLC-97TM1 = system: LCLC-97TM1
Method in brief: as §1

SMILES: O=c1[nH]c2ccccc2n1C1CCN(CCCC(c2ccc(F)cc2)c2ccc(F)cc2)CC1 [Pimozide] + C[C@@H](Oc1cc(-c2cnn(C3CCNCC3)c2)cnc1N)c1c(Cl)ccc(F)c1Cl [Crizotinib] (partner 1 µM)
- relative viability (ABC-1; first compound 0.08 µM): 1.03
- relative viability (ABC-1; first compound 0.253 µM): 0.604
- relative viability (ABC-1; first compound 0.8 µM): 0.783
- relative viability (ABC-1; first compound 2.53 µM): 0.755
- relative viability (ABC-1; first compound 8 µM): 0.606
- relative viability (SK-MES-1; first compound 0.08 µM): 0.882
- relative viability (SK-MES-1; first compound 0.253 µM): 0.928
- relative viability (SK-MES-1; first compound 0.8 µM): 0.957
- relative viability (SK-MES-1; first compound 2.53 µM): 1.01
- relative viability (SK-MES-1; first compound 8 µM): 0.901
- relative viability (NCI-H1355; first compound 0.08 µM): 1.08
- relative viability (NCI-H1355; first compound 0.253 µM): 0.988
- relative viability (NCI-H1355; first compound 0.8 µM): 0.959
- relative viability (NCI-H1355; first compound 2.53 µM): 0.937
- relative viability (NCI-H1355; first compound 8 µM): 1.06
- relative viability (NCI-H322M; first compound 0.253 µM): 0.805
- relative viability (NCI-H322M; first compound 0.8 µM): 0.846
- relative viability (NCI-H322M; first compound 2.53 µM): 0.832
- relative viability (NCI-H322M; first compound 8 µM): 0.943
- relative viability (NCI-H1915; first compound 0.08 µM): 0.971
- relative viability (NCI-H1915; first compound 0.253 µM): 0.863
- relative viability (NCI-H1915; first compound 0.8 µM): 0.709
- relative viability (NCI-H1915; first compound 2.53 µM): 0.863
- relative viability (NCI-H1915; first compound 8 µM): 0.784
- relative viability (NCI-H2085; first compound 0.08 µM): 0.897
- relative viability (NCI-H2085; first compound 0.253 µM): 0.792
- relative viability (NCI-H2085; first compound 0.8 µM): 0.772
- relative viability (NCI-H2085; first compound 2.53 µM): 0.712
- relative viability (NCI-H2085; first compound 8 µM): 0.775
- relative viability (NCI-H2087; first compound 0.08 µM): 0.856
- relative viability (NCI-H2087; first compound 0.253 µM): 0.721
- relative viability (NCI-H2087; first compound 0.8 µM): 0.604
- relative viability (NCI-H2087; first compound 2.53 µM): 0.826
- relative viability (NCI-H2087; first compound 8 µM): 0.889
- relative viability (CAL-12T; first compound 0.08 µM): 0.711
- relative viability (CAL-12T; first compound 0.253 µM): 0.644
- relative viability (CAL-12T; first compound 0.8 µM): 0.557
- relative viability (CAL-12T; first compound 2.53 µM): 0.469
- relative viability (CAL-12T; first compound 8 µM): 0.473
- relative viability (A-427; first compound 0.08 µM): 0.802
- relative viability (A-427; first compound 0.253 µM): 0.839
- relative viability (A-427; first compound 0.8 µM): 0.896
- relative viability (A-427; first compound 2.53 µM): 0.845
- relative viability (A-427; first compound 8 µM): 0.878
- relative viability (PC-14; first compound 0.253 µM): 0.84
- relative viability (PC-14; first compound 0.8 µM): 0.943
- relative viability (PC-14; first compound 2.53 µM): 0.934
- relative viability (PC-14; first compound 8 µM): 0.978
- relative viability (LCLC-97TM1; first compound 0.08 µM): 0.337
- relative viability (LCLC-97TM1; first compound 0.253 µM): 0.356
- relative viability (LCLC-97TM1; first compound 0.8 µM): 0.296
- relative viability (LCLC-97TM1; first compound 2.53 µM): 0.424
